Tests used:
BJAB cells = assay: BJAB cell proliferation (Cell Titer Glo); assay type: cell-based; conditions: approximately 72 hours; for EC50: Homo sapiens
Method: Cells were seeded in white Corning Costar 96-well assay plates at 2500 cells/well in 50 μL of medium. Serial dilutions of test compounds were made in cell culture medium/FBS+0.2% DMSO, and transferred to assay plates in a volume of 50 μL (DMSO at 0.1% final). Plates were maintained at 37° C. for approximately 72 hours. The effect of compounds on cell proliferation was evaluated using the Cell Titer Glo reagent (Promega), according to the manufacturer's instructions. Briefly, 100 μL of reagent was added per well, and after a 10 minute incubation luminescence values were determined on a plate reader (Tecan F200PRO). The percent of luminescence signal relative to untreated controls was calculated for each compound concentration, and EC50 values were determined from dose response data by non-linear regression analysis using Prism (GraphPad). The mTor inhibitor Torin1 (Liu, et al. (2010) J. Med. Chem. 53, 7146) was used as a control. The data are summarized in the compound table provided above.

HCT116 cells = assay: Effect on glutathione levels with menadione and N-acetyl cysteine; assay type: cell-based; conditions: FIG. 3
Method: Effect on Glutathione levels: BJAB and HCT116 cells were maintained in RPMI medium (Wisent) or McCoy's medium (Wisent), respectively. 5000 cells/well were transferred to clear-bottom 96-well assay plates (Thermo Fisher) in a volume of 50 μL. Plates were incubated overnight at 37° C. in 5% CO2, in an unsealed plastic bag with damp paper. Menadione (Sigma) was dissolved in DMSO and diluted in 10% heat inactivated FBS plus culture medium to 20 μM and 5 μM (0.2% DMSO for each). Culture medium was gently aspirated from cells and replaced by 50 μl diluted menadione or 0.2% DMSO for controls. Test compound was diluted to 80 μM (0.2% DMSO) in 10% heat inactivated FBS plus culture medium then diluted further to 5 μM, 1 μM, 0.5 μM and 0.05 μM (in 0.2% DMSO). 50 μL test compound solution was added to each well, with or without menadione. One μL of an N-acetyl cysteine (Sigma) solution at 100 mM in water was added where indicated. Assay plates were incubated for the times indicated at 37° C. 5% CO2 in opened plastic bag with damp paper. Total glutathione levels were determined according to the procedure described above.

Compound	EC50 (BJAB cells)	also measured
Cc1nn(-c2nc(-c3cc(Cl)cc(Cl)c3)c(SC(C)C)s2)c(C(=O)O)c1-c1cc(Cl)cc(Cl)c1 [Compound 150, 4-(3,5-dichlorophenyl)-1-(4-(3,5-dichlorophenyl)-5-(isopropylthio)thiazol-2-yl)-3-methyl-1H-pyrazole-5-carboxylic acid]	1 to 5 µM	–
Cc1nn(C)cc1-c1c(C)nn(-c2nc(-c3ccc(Cl)c(Cl)c3)c(SC(C)C)s2)c1C(=O)O [Compound 22, 2-(4-(3,4-dichlorophenyl)-5-(isopropylthio)thiazol-2-yl)-2′,5,5′-trimethyl-4,4′-bi(2H-pyrazole)-3-carboxylic acid]	10 to 25 µM	–
COCCOc1cc(Cl)cc(-c2c(C)nn(-c3nc(-c4ccc(Cl)c(Cl)c4)c(SC(C)C)s3)c2C(=O)O)c1 [Compound 175, 4-(3-chloro-5-(2-methoxyethoxy)phenyl)-1-(4-(3,4-dichlorophenyl)-5-(isopropylthio)thiazol-2-yl)-3-methyl-1H-pyrazole-5-carboxylic acid]	1 to 5 µM	–
CC1=CC(=O)c2ccccc2C1=O [menadione]	–	Glutathione levels in HCT116 cells after treatment (HCT116 cells): reduction; Effect of N-acetyl cysteine on the reduction of glutathione (HCT116 cells; presence or absence of N-acetyl cysteine): prevents the reduction
CCNC(=O)c1cc(-c2nc(-n3nc(C)c(-c4cccc(F)c4)c3C(=O)O)sc2SC(C)C)ccc1Cl [Compound 243, 1-(4-(4-chloro-3-(ethylcarbamoyl)phenyl)-5-(isopropylthio)thiazol-2-yl)-4-(3-fluorophenyl)-3-methyl-1H-pyrazole-5-carboxylic acid]	> 40 µM	–
Cc1nn(-c2nc(-c3ccc(C#N)cc3)c(SC(C)C)s2)c(C(=O)O)c1-c1cccc(F)c1 [Compound 213, 1-(4-(4-cyanophenyl)-5-(isopropylthio)thiazol-2-yl)-4-(3-fluorophenyl)-3-methyl-1H-pyrazole-5-carboxylic acid]	5 to 10 µM	–
Cc1nn(-c2nc(-c3cncc(C#N)c3)c(SC(C)C)s2)c(C(=O)O)c1-c1cccc(F)c1 [Compound 210, 1-(4-(5-cyanopyridin-3-yl)-5-(isopropylthio)thiazol-2-yl)-4-(3-fluorophenyl)-3-methyl-1H-pyrazole-5-carboxylic acid]	> 40 µM	–
CCC(C)Sc1sc(-n2nc(C)c(-c3cc(C)nc(C)c3)c2C(=O)O)nc1-c1ccc(Cl)c(Cl)c1 (centres unmarked) [Compound 33b]	< 1 µM	–
Cc1nn(-c2nc(-c3ccc(Cl)c(Cl)c3)c(SC(C)C)s2)c(C(=O)O)c1-c1cccc(F)c1 [Compound 151, 1-(4-(3,4-dichlorophenyl)-5-(isopropylthio)thiazol-2-yl)-4-(3-fluorophenyl)-3-methyl-1H-pyrazole-5-carboxylic acid]	–	EC50 (BJAB cell proliferation) (BJAB cells): A,B
CSc1sc(-n2nc(C)c(Cc3ccccc3[N+](=O)[O-])c2C(=O)O)nc1-c1ccc(Cl)c(Cl)c1 [Compound 45, 1-(4-(3,4-dichlorophenyl)-5-(methylthio)thiazol-2-yl)-3-methyl-4-(2-nitrobenzyl)-1H-pyrazole-5-carboxylic acid]	25 to 50 µM	–
Cc1nn(-c2nc(-c3ccc(Cl)c(Cl)c3)c(F)s2)c(C(=O)O)c1-c1cccc(F)c1 [Compound 227, 1-(4-(3,4-dichlorophenyl)-5-fluorothiazol-2-yl)-4-(3-fluorophenyl)-3-methyl-1H-pyrazole-5-carboxylic acid]	10 to 25 µM	–
Cc1nn(-c2nc(-c3cccc(F)c3)c(SC(C)C)s2)c(C(=O)O)c1-c1cccc(F)c1 [Compound 201a]	25 to 50 µM	–
Cc1nn(-c2nc(-c3cc4ccccc4o3)c(SC(C)C)s2)c(C(=O)O)c1-c1cccc(F)c1 [Compound 201b]	10 to 25 µM	–

— US12150934B2 (Bantam Pharmaceutical, LLC, priority 2016, dated 2024)
